Values of other authors, collected in patent publication US20230270635A1, “METHODS AND COMPOSITIONS FOR COSMETIC APPLICATIONS” (GLO Pharma, Inc., priority 2021, published 2023).

Conditions: non-ionic surfactants with HLB of 10 or less, Table 1

Compound	HLB
Propylene glycol monolaurate	HLB=3
CCCCCCCCCCCCCCCCCC(=O)OCCO [Glycol stearate]	HLB = 2.9
PEG-30 dipolyhydroxy-stearate	HLB = 5.5
Polyoxyethylene (2) Oleyl Ether [Oleth-2]	HLB = 4.9
CCCCCCCCCCCC(=O)OCC(O)CO (stereo not shown) [Glyceryl laurate]	HLB = 5.2
Polyoxyethylene (8) dilaurate [PEG-8 dilaurate]	HLB = 10
CCCCCCCC(=O)OCC(O)CO (stereo not shown) [Glyceryl caprylate]	HLB = 5-6
Sorbitan monooleate	HLB = 4.3
CCCCCCCCCCCCCCCCCCOCCOCCO [Steareth-2, 2-(2-octadecoxyethoxy)ethanol]	HLB = 4.9
Polyoxyethylene (4) dilaurate [PEG-4 dilaurate]	HLB = 6
Glyceryl stearate SE	HLB = 5.8
Sorbitan monostearate	HLB = 4.7
CCCCCCCCCCCCCCCCCC(=O)OCC(O)CO (stereo not shown) [Glyceryl stearate]	HLB = 3.8

Other lines, results leading:

HLB	Compound
HLB = 1	CCCCCCCCCCCCCCCCCC(=O)OCCOC(=O)CCCCCCCCCCCCCCCCC [Glycol distearate]
HLB = 7.2	PEG-8 dioleate
HLB = 3.7	Sorbitan sesquioleate
HLB = 5.3	CCCCCCCCCCCCCCCCOCCOCCO [Ceteth-2, Diethylene glycol hexadecyl ether]
HLB = 6.6	Polyoxyethylene (3) Oleyl Ether [Oleth-3]
HLB = 4.7	Sorbitan Isostearate
HLB = 1.8	Sorbitan trioleate
HLB = 9.6	Polysorbate 61
HLB = 6.7	Sorbitan monopalmitate
HLB = 8.6	Sorbitan monolaurate
HLB = 8	PEG-8 distearate
HLB = 9	Polyoxyethylene (5) Oleyl Ether [Oleth-5]
